Experiments:
[1] = molecular target: GSK-3 α/β; assay: Kinase assay GSK-3α/β; type: biochemical, pig; conditions: 15 μM ATP, 30° C., buffer A, GS-1 substrate
Protocol: (§1) After incubating at 30° C. for 30 min, 25 μl aliquots of supernatant were deposited on 2.5×3 cm pieces of Whatman P8 phosphocellulose papers and then, 20 sec. later, the filters were washed 5 times in a solution of 10 ml of phosphoric acid/liter. The filters are subsequently counted in the presence of 1 ml of ACS (Amersham).
(§2) The mean inhibitory concentration IC50 values were calculated from the dose/response curves and are listed in μM in the following table I.

[2] = molecular target: Erk2 (Homo sapiens, UniProt P28482); assay: Kinase assay Erk2; type: biochemical; conditions: 15 μM ATP, 30° C.
Protocol: as §2

[3] = molecular target: T1, CDK9/cyclin T (Homo sapiens, UniProt P50750); assay: Kinase assay CDK9/cyclin T; type: biochemical; conditions: 15 μM ATP, 30° C., pRB fragment substrate
T1 construct: host or cells: insect cells
Protocol: as §1, with “Assaying is carried out with 1 mg histone H1/ml, in the presence of 15 μm [γ-^33P]ATP (3000 Ci/mmol; 10 mCi/ml) in a final volume of 30 μl. After” for “After”
as §2

[4] = molecular target: CK1δ/e; assay: Kinase assay CK1; conditions: read-out: IC50 CK1; 15 μM ATP, 30° C., buffer A
Protocol: Assaying is carried out with 1 mg histone H1/ml, in the presence of 15 μm [γ-^33P]ATP (3000 Ci/mmol; 10 mCi/ml) in a final volume of 30 μl. After incubating at 30° C. for 30 min, 25 μl aliquots of supernatant were deposited on 2.5×3 cm pieces of Whatman P8 phosphocellulose papers and then, 20 sec. later, the filters were washed 5 times in a solution of 10 ml of phosphoric acid/liter. The filters are subsequently counted in the presence of 1 ml of ACS (Amersham).

[5] = Solubility in water; type: physicochemical
[6] = system: B2 lymphocytes originating from patients; assay: Induction of cell death of B chronic lymphoid leukemia cells (B2 lymphocytes) from patients; type: cell-based, human; conditions: B2 lymphocytes from CLL patients, MTS reduction / LDH release
Protocol: The B2 lymphocytes are lymphocytes involved in […] chronic lymphoid leukemia.
Cell viability is determined by the reduction of 3-(4,5-dimethylthiazol-2-yl)-5-(3-carboxymethoxyphenyl)-2-(4-sulfophenyl)-2H-tetrazolium (MTS).
Cell death is determined by the measurement of the level of the activity of the lactate dehydrogenase (LDH) released during lysis of the cells. The two processes are described in detail in “Ribas J. and Boix J. Cell differentiation, caspase inhibition, and macromolecular synthesis blockage, but not BCL-2 or BCL-XL proteins protect SH-SY5Y cells from apoptosis triggered by two CDK inhibitory drugs.
In table 2, the values shown are the mean inhibitory concentration IC50 values, expressed in μM.

[7] = molecular target: T2, DYRK1A (Homo sapiens, UniProt Q13627); assay: Kinase assay DYRK1A; type: biochemical; conditions: 15 μM ATP, 30° C.
T2 construct: host or cells: E. coli
Protocol: as §1, with “Assaying is carried out with 1 mg histone H1/ml, in the presence of 15 μm [γ-^33P]ATP (3000 Ci/mmol; 10 mCi/ml) in a final volume of 30 μl. After” for “After”
DYRK1A (human, recombinant, expressed in E. coli cells) is assayed like CDK1/cyclin B.
as §2

[8] = system: B-CLL; conditions: B-CLL patients; cited from earlier work

Erk2, sequence (P28482 whole entry, species assumed): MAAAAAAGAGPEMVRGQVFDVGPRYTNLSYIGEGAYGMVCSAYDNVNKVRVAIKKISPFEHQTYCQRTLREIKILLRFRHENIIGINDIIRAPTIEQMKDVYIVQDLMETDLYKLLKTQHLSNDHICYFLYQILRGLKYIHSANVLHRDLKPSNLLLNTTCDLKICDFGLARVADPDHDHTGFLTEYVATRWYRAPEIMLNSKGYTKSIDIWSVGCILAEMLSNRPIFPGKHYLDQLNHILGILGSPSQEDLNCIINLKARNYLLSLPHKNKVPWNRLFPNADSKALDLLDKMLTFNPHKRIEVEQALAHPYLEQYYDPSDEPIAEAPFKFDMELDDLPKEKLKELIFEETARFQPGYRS
T1 sequence (P50750 whole entry, the tested form may be a part): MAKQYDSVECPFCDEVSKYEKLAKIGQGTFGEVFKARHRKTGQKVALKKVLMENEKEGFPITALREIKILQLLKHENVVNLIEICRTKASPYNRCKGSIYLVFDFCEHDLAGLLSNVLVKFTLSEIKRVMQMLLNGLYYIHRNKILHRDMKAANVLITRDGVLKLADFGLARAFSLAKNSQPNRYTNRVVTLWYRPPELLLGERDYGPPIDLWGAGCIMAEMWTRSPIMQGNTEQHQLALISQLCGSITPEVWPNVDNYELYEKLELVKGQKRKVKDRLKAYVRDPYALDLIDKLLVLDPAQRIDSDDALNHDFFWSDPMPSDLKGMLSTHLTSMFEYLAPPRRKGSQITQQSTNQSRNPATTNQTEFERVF
T1 sequence (O60563 whole entry partner, the tested form may be a part): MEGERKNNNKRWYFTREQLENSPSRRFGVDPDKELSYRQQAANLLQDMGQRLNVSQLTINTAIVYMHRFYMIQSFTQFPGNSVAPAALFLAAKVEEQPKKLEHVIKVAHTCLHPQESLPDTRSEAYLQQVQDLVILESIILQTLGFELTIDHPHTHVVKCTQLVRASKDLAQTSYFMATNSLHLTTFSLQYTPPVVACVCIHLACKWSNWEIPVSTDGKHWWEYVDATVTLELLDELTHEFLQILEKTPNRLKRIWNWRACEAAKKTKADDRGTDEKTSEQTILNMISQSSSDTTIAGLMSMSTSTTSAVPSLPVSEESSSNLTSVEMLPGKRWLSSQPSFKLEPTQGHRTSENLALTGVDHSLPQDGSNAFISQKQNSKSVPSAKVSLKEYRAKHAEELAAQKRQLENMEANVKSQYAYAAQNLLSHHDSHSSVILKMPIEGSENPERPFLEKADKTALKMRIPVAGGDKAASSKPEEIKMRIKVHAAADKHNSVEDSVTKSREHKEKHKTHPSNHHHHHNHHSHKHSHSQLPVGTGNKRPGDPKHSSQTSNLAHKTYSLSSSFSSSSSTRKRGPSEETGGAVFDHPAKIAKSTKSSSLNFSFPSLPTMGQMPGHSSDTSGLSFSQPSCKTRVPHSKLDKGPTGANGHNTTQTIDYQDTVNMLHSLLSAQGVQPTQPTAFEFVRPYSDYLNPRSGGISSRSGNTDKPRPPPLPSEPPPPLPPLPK

CC[C@@H](CO)Nc1nc(NCc2ccc(-c3ccccn3)cc2)c2ncn(C(C)C)c2n1 [Compound of formula Ib]
IC50 [1]: ≥ 30000 nM | IC50 [2]: 2100 nM | IC50 [3]: 110 nM | IC50 [4]: 610 nM | solubility [5]: 3.3 µg/mL | IC50 ([6]; Homo sapiens, Lymphocyte): 90 nM | IC50 [7]: 900 nM

alemtuzumab: therapeutic antibody against an antigen expressed on leukocytes and leukemic B lymphocytes of CLL
hematologic response [8]: 33%

CC(C)[C@H](CO)Nc1nc(NCc2ccc(-c3ccccn3)cc2)c2ncn(C(C)C)c2n1 [Compound of formula If]
IC50 [6]: 380 nM

CC(C)[C@H](CO)Nc1nc(NCc2ccc(-c3ccccn3)cc2)c2ncn(C(C)C)c2n1 [Compound of formula Ie]
IC50 ([6]; Homo sapiens, Lymphocyte): 510 nM

CC[C@H](CO)Nc1nc(NCc2ccc(-c3ccccn3)cc2)c2ncn(C(C)C)c2n1 [Compound of formula Ia]
IC50 [2]: 3600 nM | IC50 [3]: 180 nM | IC50 [4]: 400 nM | IC50 ([6]; Homo sapiens, Lymphocyte): 200 nM | IC50 [7]: 3600 nM

CCC(CO)Nc1nc(NCc2ccc(-c3ccccc3)cc2)c2ncn(C(C)C)c2n1 (stereo not drawn) [Compound of formula Ic]
solubility [5]: 0.5 µg/mL | IC50 ([6]; Homo sapiens, Lymphocyte): 1250 nM

CC(C)n1cnc2c(NCc3ccc(-c4ccccn4)cc3)nc(NC(CO)CO)nc21 [Compound of formula Id, 2-(1,3-Dihydroxyprop-2-ylamino)-6-[4-(2-pyridyl)phenylmethylamino]-9-isopropylpurine]
IC50 ([6]; Homo sapiens, Lymphocyte): 250 nM
